Assay results published in patent publication US6610655B2, “Pentapeptide with specific conformation, its production and use” (Takeda Chemical Industries, Inc., priority 1994, dated 2003).
Where a SMILES comes first, the peptide text is derived from it. [ ]: non-standard residue; d: D form. The star is where a group is joined. Bn = c1ccc(C*)cc1

target: T1, NK2 receptor (Bos taurus, UniProt P05363); experiment: Binding inhibiting activity on NK2 receptor (125I-NKA, membrane fraction of bovine third stomach); conditions: 125I-neurokinin A, membrane fraction from inner wall of bovine third stomach, 25° C., 3 hours
T1 construct: membrane fraction containing the receptor was prepared from the inner wall of the bovine third stomach; tissue Kyoto Chuo Chikusan Fukuseibutsu Oroshi Kyokai; host or cells: inner wall of the bovine third stomach (membrane fraction)
T1 sequence (P05363 1-384): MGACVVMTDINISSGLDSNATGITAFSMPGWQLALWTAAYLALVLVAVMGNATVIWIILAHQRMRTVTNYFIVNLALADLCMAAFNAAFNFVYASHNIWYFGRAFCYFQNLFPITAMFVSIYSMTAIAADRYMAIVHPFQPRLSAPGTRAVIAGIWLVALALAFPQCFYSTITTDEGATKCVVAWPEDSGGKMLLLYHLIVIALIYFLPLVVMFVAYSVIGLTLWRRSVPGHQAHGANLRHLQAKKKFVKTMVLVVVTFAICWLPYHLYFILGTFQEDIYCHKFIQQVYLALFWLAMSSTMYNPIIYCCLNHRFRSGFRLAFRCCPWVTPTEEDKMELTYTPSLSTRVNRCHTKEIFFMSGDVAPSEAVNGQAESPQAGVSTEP
Method: The method of Paul L. M. Van Giersbergen et al. [Proc. Natl. Acad. Sci. U.S.A., 88, 1661 (1991) was modified for this assay. The membrane fraction containing the receptor was prepared from the inner wall of the bovine third stomach (purchased from Kyoto Chuo Chikusan Fukuseibutsu Oroshi Kyokai).
The inner wall of the bovine third stomach stored at −80° C. was cut to 1 cm×1 cm or less, and disrupted in 3 liters/kg of 50 mM Tris-HCl buffer (pH 7.4) supplemented with 120 mM sodium chloride, 5 mM potassium chloride, 0.02% BSA and 5% sucrose, using a polytron homogenizer (Kinematika, Germany). Then, the disrupted product was centrifuged at 1,000×g for 10 minutes. The supernatant was further centrifuged at 45,000×g for 20 minutes. The precipitate was suspended in 200 ml of 50 mM Tris-HCl buffer (pH 7.4) supplemented with 300 mM potassium chloride, 10 mM ethylenediaminetetraacetic acid, 0.1 mM […] and 0.02% BSA, and gently stirred under ice cooling for 60 minutes. The suspension was centrifuged at 45,000×g for 20 minutes. The precipitate was washed with 200 ml of 50 mM Tris-HCl buffer (pH 7.4), and stored in the frozen state at −40° C. as a receptor sample.
This sample was suspended in a reaction buffer solution [50 mM Tris-HCl buffer (pH 7.4), 0.02% bovine serum albumin and 4 mM manganese chloride] so as to give a protein concentration of 0.7 mg/ml, and 100 μl thereof was used for reaction. A test sample and ^125I-NKA (0.61 KBq, ^125I-neurokinin A, 81.4 TBq/mmol, Du Pont/NEN Research Products, U.S.A.) were also added, and reacted in 0.2 ml of the reaction buffer solution at 25° C. for 3 hours. The reaction mixture was rapidly filtered through a glass filter (GF/B, Whatman, U.S.A.) using a cell harvester (Type 290PHD, Cambridge Technology Inc., U.S.A.) to terminate the reaction, and washed 3 times with 250 μl of 50 mM Tris-HCl buffer (pH 7.4) supplemented with 0.02% bovine serum albumin. The radioactivity left on the filter was measured with a gamma-ray counter. […]

Row | IC50 | Structure (SMILES)
1 | 1500 nM | CC(C)C[C@@H]1NC(=O)[C@@H](CC(C)C)NC(=O)[C@H]([C@@H](C)OCc2ccccc2)NC(=O)[C@@H](CCC(=O)O)NC(=O)[C@@H](Cc2c[nH]c3ccccc23)NC1=O [Cyclo(-D-Glu-Thr(Bzl)-D-Leu-Leu-D-Trp-)] (cyclo([dE]T(Bn)[dL]L[dW]))
2 | 27 nM | CC(C)C[C@@H]1NC(=O)[C@@H](CC(C)C)NC(=O)[C@H](Cc2c[nH]c3ccccc23)NC(=O)[C@@H](CC(=O)O)NC(=O)[C@@H](Cc2c[nH]c3ccccc23)NC1=O [Cyclo(-D-Asp-Trp-D-Leu-Leu-D-Trp-)] (cyclo([dD]W[dL]L[dW]))
3 | 580 nM | CC(C)C[C@@H]1NC(=O)[C@@H](CC(C)C)NC(=O)[C@H](COCc2ccccc2)NC(=O)[C@@H](CCC(=O)O)NC(=O)[C@@H](Cc2c[nH]c3ccccc23)NC1=O [Cyclo(-D-Glu-Ser(Bzl)-D-Leu-Leu-D-Trp-)] (cyclo([dE]S(Bn)[dL]L[dW]))
